# Data as given in US20080065002A1, “Catheter for Localized Drug Delivery and/or Electrical Stimulation” (NEUROSYSTEC CORPORATION, priority 2006, published 2008).
# Assay: Expected decomposition of gacyclidine in solution
# Format: physicochemical
# Conditions: 72 hours at 37° C.
# Method: The compatibility of gacyclidine in Ringer's Lactate (pH 6.0) in PTFE tubing at room temperature and at 37° C. was evaluated. Three sets of six segments each of PTFE tubing were used. Six samples were collected at each of three time intervals (6 hr, 23 hr and 72 hr). For each set of samples collected, three were incubated at ambient temperature and three were incubated at 37° C. A 16.5 ft. long segment of PTFE tubing (0.010″ ID, 0.018″ OD) was filled with 100 μM gacyclidine in Ringer's Lactate solution (pH 6.0) by use of a glass syringe. The two ends of the tubing were sealed with a paraffin wax vapor barrier. After incubating at room temperature or 37° C. for a specified time, the solution was pumped directly into a glass HPLC autosampler vial insert using an air-filled syringe. The PTFE tubing drug loss in 72 hours at room temperature was 1.3% and at 37° C. was 7.9%. […] The expected amount of decomposition expected in 72 hours at 37° C. is 8.0%.
smiles,measurement,value
CC1CCCCC1(c1cccs1)N1CCCCC1 (stereo not shown) [gacyclidine],expected amount of decomposition,8.0%
